# Test results taken from patent US9291621B2, “AGER-peptides and use thereof” (AbbVie Deutschland GmbH & Co. KG, priority 2005, dated 2016).
# Assays:
# [1] = system: hippocampal sections (CA1 region); experiment: Excitatory synaptic transmission and long-term potentiation in hippocampal sections; assay type: cell-based, male Wistar rats; conditions: for effect on short-term and long-term potentiation: theta burst stimulation, p=0.016 (NtermR31), p=0.794 (scraNtermR31), repeated measures ANOVA
# Method: 400 μm-thick transverse hippocampal sections from 7-8-week-old male Wistar rats (Harlan Winkelmann, Bochum, Germany) were prepared using a tissue chopper and equilibrated for at least 1 hour at 33° C. in Carbogen-gassed artificial cerebrospinal fluid (aCSF) of the following composition: NaCl 124 mM; KCl 4.9 mM; MgSO4 1.3 mM; CaCl2 2.5 mM; KH2PO4 1.2 mM; NaHCO3 25.6 mM; glucose 10 mM; pH 7.4. Recordings were made from the section immersed in Carbogen-gassed artificial cerebrospinal fluid (aCSF) of the same composition.
# Stimulation of the Schaffer collaterals took place in the stratum radiatum using a monopolar stimulating electrode with biphasic pulse (voltage range 1-5 V). Excitatory post-synaptic potentials (EPSPs) were recorded in the stratum radiatum using aCSF-filled glass electrodes against a chlorinated silver reference electrode (bath). These reflect in particular the strength of the glutamatergic synaptic transmission.
# The values were determined from the gradient of the field EPSPs recorded every 5 min for a period of 120 minutes before and 120 minutes after LTP induction. LTP was induced by so-called theta burst stimulation (4×2 pulses at an interval of 200 ms with a double-pulse interval of 10 ms). […]
# [2] = target: sRAGE/Aβ globulomer interaction (Homo sapiens, UniProt P05067); conditions: for inhibition of Aβ oligomer binding to sRAGE: increasing peptide concentrations, Aβ 1/5 biotin globulomer 800 nM
# Sequence of sRAGE/Aβ globulomer interaction (P05067 672-713 limits assumed): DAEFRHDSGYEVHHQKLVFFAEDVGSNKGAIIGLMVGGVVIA
# Method: The HTRF donor and acceptor components, Anti6HIS europium cryptate (CIS Bio catalogue number: 61HISKLA; 500 wells/13 μg) and streptavidin XL-665 (CIS Bio catalogue number: 61HISAXLA, 500 wells/250 μg) were each dissolved in 250 μl of dd H2O, Starting from these stock solutions, 1:50 working dilutions were prepared with a final concentration of 7.4 nM Anti6His cryptates and 121.2 nM streptavidin XL-665 in PBS, 0.1% BSA, pH 7.4.
# Working solutions of peptides 6 and 7 were prepared with concentrations of 200 μM, 100 μM, 50 μM, 25 μM, 12.5 μM, 6.25 μM, 3.125 μM, 1.56 μM and 0.78 μM.
# To carry out the tests, initially 4 μl of the working solutions of each of peptides 6 and 7, and of a buffer control, were mixed with 4 μl of a 4 μM stock solution of the Aβ 1/5 biotin globulomer (final assay concentration 800 nM) and incubated at room temperature for one hour. The A beta 1/5 biotin globulomer concentration indicated here is based on the Aβ 1-42 monomers which were used to prepare the globulomers.
# 2 μl portions of the 7.4 nM Anti6His cryptates and of the 121.2 nM streptavidin solution described above were added in order then to incubate this mixture, now at 4° C., for a further two hours. After addition of 4 μl of a 2M KF stock solution, the complete mixture was measured in a BMG Pherastar fluorescence measuring instrument (BMG Labtech GmbH, Offenburg, Germany) in HTRF mode. Separate measurements without peptide were carried out for the max-signal curve. For the background curve, measurements were used with in each case only the AntiGHIS cryptates and strepavidin XL solutions. The calculated % DeltaF values were transferred into GraphPad Prism 4 (GraphPad Software, San Diego, USA) and evaluated. The concentrations indicated in the graphs are based on the final concentration of the complete 20 μl mixture.
# [3] = target: T1, sRAGE-6×HIS (amino acids 23-352, NP_001127) (Homo sapiens, UniProt Q15109); experiment: AlphaScreen measurement of peptide binding to sRAGE; conditions: for binding to the receptor (AlphaScreen): biotinylated control peptides 0, 10, 30, 100, 300 nM
# T1 construct: fusion protein sRAGE-6×HIS (amino acids 23-352, NP_001127); made in house
# T1 sequence (Q15109 with tags, fused parts or gaps): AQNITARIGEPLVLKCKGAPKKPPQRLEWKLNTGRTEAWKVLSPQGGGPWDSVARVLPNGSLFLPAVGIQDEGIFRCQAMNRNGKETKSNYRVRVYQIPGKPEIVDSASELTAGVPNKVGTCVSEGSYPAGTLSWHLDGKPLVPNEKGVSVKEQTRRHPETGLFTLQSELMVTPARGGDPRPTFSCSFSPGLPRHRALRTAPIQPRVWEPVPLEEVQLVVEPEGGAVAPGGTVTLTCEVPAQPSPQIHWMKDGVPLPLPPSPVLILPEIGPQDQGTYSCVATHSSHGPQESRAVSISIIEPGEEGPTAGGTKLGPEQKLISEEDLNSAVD
# Method: The entire homogeneous assay was carried out in 25 mM HEPES, 100 mM NaCl of pH 7.4 and 0.1% BSA in a volume of 20 μl.
# (§1) The individual components were brought together in a defined time sequence. […] The various amounts of peptide were then added in order, after a further 30 minutes, to add the donor beads. After a further 60 minutes, the fluorescence was measured in the AlphaQuest instrument from Perkin-Elmer with a time lag of one second. Each measured point was determined as triplicate. The analysis and graphical workup of the results took place with the GraphPrism 4.0 software package.
# The binding to the RAGE receptor was measured by employing the AlphaScreen™ System (order number: 6760610M) from Perkin Elmer (Shelton, Conn., USA).
# The assay was carried out by the manufacturer's protocol in 25 mM HEPES, 100 mM NaCl of pH 7.4 and 0.1% BSA in a volume of 20 μl. The mixture comprised 2.5 ng/μl of the fusion protein sRAGE-6×HIS (amino acids 23-352, NP_001127), 20 ng/μl anti-HIS acceptor beads, 20 ng/μl streptavidin donor beads and the biotinylated peptides in concentrations of 0, 10, 30, 100, and 300 nM. The peptides, with the exception of AR 1-42 oligomers, were heated at 50° C. for 10 minutes immediately before the test in order to loosen possible aggregations.
# as §1, with “evaluation” for “analysis”
# [4] = system: HEK293 RhoA/NgR/p75 cells; experiment: Functional actin cytoskeletal rearrangement (ACR) assay; assay type: cell-based, human; conditions: preincubation 0.2, 1, 5 μM; stimulation with AP-Nogo-66 (9.6 μg/ml)
# Method: 1×10^4 cells were […] into microtiter plates with 96 wells two days before the stimulation. The cells were stimulated with a suitable reagent (e.g. LPA or AP-Nogo-66) in culture medium (RPMI-Glutamax) comprising 5% FCS. After a stimulation period of 5 to 10 minutes, the activation was stopped with cold PBS. The cells were fixed with 3-4% strength paraformaldehyde solution, permeabilized with PBS comprising 0.2% Triton X-100, and incubated with phalloidin Alexa 568 or 488 for 30-45 minutes. Incubation with DAPI additionally took place for 5 minutes for nuclear staining. The cells were visualized with the aid of an epifluorescence microscope (Axiovert 25).
# 1×10^4 Hek293 RhoA/NgR/p75 cells were transferred into MTP Biocoat microtiter plates with 96 wells two days before the actual start of the test. […] The cells were stimulated with the NgR ligand AP-Nogo-66 (9.6 μg/ml) in culture medium comprising 5% FCS. An unstimulated control mixture (without AP-Nogo66) was prepared for each series of tests. After a stimulation period of 5 to 10 minutes, the activation was stopped with cold PBS. […] were recorded with a cooled CCD camera from Zeiss, and the percentage content of contracted cells, based on the total cell count, was found.
# [5] = biotinylated control peptides 0-300 nM
substance,measurement,setting,value
APLACPRELIKGKWEVKPKRNPKNQLTIGQL [ScraNtermR31],effect on short-term and long-term potentiation,[1]; 500 nM,no effect
TLQSELMVTPARGGDPRPTFSCSFSPGLPR [peptide 6],inhibition of Aβ oligomer binding to sRAGE,[2],Inhibition
GKPRAPKCLKPEQ [ScraNtermR13],affinity to sRAGE compared with NtermR13,[3]; [5],same or slightly higher affinity
same,maximum signal intensity in the test,[3]; [5],highest maximum signal intensity
F S R I R A T H W R V D G [AlterCharge1],binding to the receptor (AlphaScreen),[3],binding
LPRHRALRTAPIQPRVWEPVPLEEVQLVVE [peptide 7],"inhibitory activity, peptide 7 compared with peptide 6",[2],more pronounced
same,inhibition of Aβ oligomer binding to sRAGE,[2],Inhibition
QNITARIGEPLVLKCKGAPKKPPQRLEWKLN [NtermR31],input/output ratio,[1]; 500 nM,unaffected
same,effect on short-term and long-term potentiation,[1]; 500 nM,distinctly suppresses
same,effect on basal synaptic transmission,[1]; application for 90 minutes,no effect
same,percentage content of contracted HEK cells,[4],concentration-dependent reduction
R L K R G H A [Plus7],maximum signal intensity in the test,[3]; [5],highest maximum signal intensity
E T E D S D T [Minus7],binding to the receptor (AlphaScreen),[3],no bonding
F P V I P A L F W I V L M [Unpol13],binding to the receptor (AlphaScreen),[3],no bonding
